According to patent US11993640B2, “Treating inflammatory lung disease” (United States Government as represented by the Department …, priority 2019, dated 2024):
Entries after “also recorded” stand apart in the source; their conditions may differ. Non-standard residues stand in square brackets, D forms with d. Residues, ends and D or L forms follow the SMILES beside them. *: point of attachment. Phe(F5) = N[C@@H](Cc1c(F)c(F)c(F)c(F)c1F)C(=O)O; hArg = N=C(N)NCCCC[C@H](N)C(=O)O; 12Ado = NCCCCCCCCCCCC(=O)O; Nle = CCCC[C@H](N)C(=O)O; Orn = NCCC[C@H](N)C(=O)O; Abu = CC[C@H](N)C(=O)O; PhAc = O=C(Cc1ccccc1)*

Columns and labels:
PC3 cells = assay: In vitro cell viability, prostatic cancer PC3; type: cell-based, human; settings: 5 μM, 72 h; relative to MIA602 = 1; Table 3A
Experimental: (§1) The inhibitory effects of the various synthesized GHRH antagonists were tested in cell proliferation assays in various human cancer cell lines including stomach cancer (KATOIII, N87), colon cancer (HT-29), urothelial cancer (J82, RT4), pancreatic cancer (PANC-1, CFPAC-1), prostatic cancer (PC3), breast cancer (MX-1, HCC1806), ovarian cancer (SK-OV-3, OVCAR-3) and lung cancer (HCC827, H460).
(§2) Cell culture. Human cancer cell lines including pancreatic (PANC-1 and CFPAC-1), lung (HCC827 and H460), stomach (NCI-N87 and KATOIII), urothelial (J82, RT4), prostatic (PC3), breast (MX-1 and HCC 1806), colorectal (HT-29), and ovarian (SK-OV-3 and OVCAR-3) were obtained from the American Type Culture Collection (ATCC) and cultured at 37° C. in a humidified 95% air/5% CO2 atmosphere in the medium recommended by ATCC.
(§3) In vitro cell viability. Cell viability was analyzed as follows: cancer cells including pancreatic (PANC-1 and CFPAC-1), lung (HCC827 and H460), stomach (NCI-N87 and KATOIII), urothelial (J82, RT4), prostatic (PC3) and breast (MX-1 and HCC 1806), colorectal (HT-29) and ovarian (SK-OV-3 and OVCAR-3) were grown on 96 well plates to ˜60% confluence, the cells were starved for 24 h in culture medium containing 0.5% FBS. Cells were then treated with GHRH antagonists MIA602 AVR compounds at concentrations of 1, 2.5 or 5 μM, or vehicle (0.1% DMSO) in quintuplicates for 72 hours. The medium was replaced every 48 hours. Cell viability was measured using CellTiter 96 aqueous one solution kit (Promega). Inhibitory effects of tested AVR compounds in comparison to that of MIA602 are presented as inhibitory potency.
Inhibitory effects of selected AVR compounds in comparison to that of MIA602 are presented as inhibitory potency (e.g., percentage of inhibition). […] The cell lines tested including lung cancer HCC827 (FIG. 2A), pancreatic cancer CFPAC-1 (FIG. 2B), stomach cancer N87 (FIG. 2C), colon cancer HT-29 (FIG. 2D), breast cancers MX-1 and HCC1806 (FIGS. 2E, F). […]

HCC1806 cells = assay: In vitro cell viability, breast cancer HCC1806; type: cell-based, human; settings: 5 μM, 72 h
Experimental: as §1, §2, §3
(§4) Inhibitory effects of selected AVR compounds in comparison to that of MIA602 are presented as inhibitory potency (e.g., percentage of inhibition). […] The cell lines tested including lung cancer HCC827 (FIG. 2A), pancreatic cancer CFPAC-1 (FIG. 2B), stomach cancer N87 (FIG. 2C), colon cancer HT-29 (FIG. 2D), breast cancers MX-1 and HCC1806 (FIGS. 2E, F). Based on the results of cell proliferation assay after cancer cells were treated with antagonist at concentration of 5 μM for 72H, the relative inhibitory potency of AVR antagonists in comparison to MIA-602 is summarized in Table 3 A and B. Over 60 AVR compounds were tested in 12 cancer cell lines.
(§5) Based on the results of cell proliferation assay after cancer cells were treated with antagonist at concentration of 5 µM for 72H, * at concentration of 2 µM for 72 H.

MX-1 cells = assay: In vitro cell viability, breast cancer MX-1; type: cell-based, human; settings: 5 μM, 72 h
Experimental: as §1, §2, §3, §4, §5

HT-29 cells = assay: In vitro cell viability, colon cancer HT-29; type: cell-based, human; settings: 5 μM, 72 h; Table 3B
Experimental: as §1, §2
In vitro cell viability. Cell viability was analyzed as follows: cancer cells including pancreatic (PANC-1 and CFPAC-1), lung (HCC827 and H460), stomach (NCI-N87 and KATOIII), urothelial (J82, RT4), prostatic (PC3) and breast (MX-1 and HCC 1806), colorectal (HT-29) and ovarian (SK-OV-3 and OVCAR-3) were grown on 96 well plates to ˜60% confluence, the cells were starved for 24 h in culture medium containing 0.5% FBS. […] Cell viability was measured using CellTiter 96 aqueous one solution kit (Promega). […]

[1] = tested on: C57Bl/6J mice treated with bleomycin; assay: Bleomycin lung injury model, lung hydroxyproline assay; type: in vivo, mouse
Experimental: (§6) Experimental animals. 8-week old C57Bl/6J male mice (The Jackson Laboratory, Bar Harbor, ME) were used in these experiments. Mice weighed about 26 grams at the start. Mice were randomly allocated to the experimental groups and housed in identical filter top cages in a ventilated rack. Mice were exposed to a 12-hour light/dark cycle and had free access to standard laboratory chow and water.
(§7) Bleomycin and GHRH-R antagonist treatment. Mice were treated with 0.8 units of bleomycin (Bleomycin for Injection USP, Hospira, Lake Forest, IL) intraperitoneally (IP) on days 1, 3, 7, 10, 14 and 21 (Collins S, Chan-Li Y, Oh M, Vigeland C, Limjunyawong N, Mitzner W, Powell J D, Horton M R (2016). JCI Insight 1(4):1-13). Mice (randomly assigned) were simultaneously treated subcutaneously (sc) with MIA-602 (5 μg/day) or its vehicle (100 μL/day). MIA-602 was dissolved in DMSO (ACS grade; Sigma-Aldrich) and diluted 1:500 in normal saline for daily sc injection on days 0-21.
(§8) Tissue preparations. Mice were killed by CO2 inhalation before any treatment, or on days 14 or 28 for micro-CT scans of lungs and harvesting of lung tissue (Vande Velde G, Poelmans J, De Langhe E, Hillen A, Vanoirbeek J, Himmelreich U, Lories R (2016). Dis Model Mech 9:91). […]
Hydroxyproline assay. […] Hydroxyproline was measured colorimetrically (560 nm) after hydrolysis using an assay kit (MAK008, Sigma-Aldrich, St. Louis, MO). […]

[2] = tested on: C57Bl/6J mice treated with bleomycin; assay: Bleomycin lung injury model, micro-CT of lungs; type: in vivo, mouse; settings: bleomycin plus MIA-602
Experimental: as §6, §7, §8
Micro-CT. Mice in each group were assessed by micro-CT scans (Bruker SkyScan 1176 Low Dose Micro-CT, Knotich, Belgium) of the lungs after CO2 inhalation. […]

[3] = tested on: PAK1-STAT3/NF-κB in gastric cancer cells; settings: Gan et al. 2016; cited from earlier work
[4] = relative to MIA602 = 1, Table 3A

For `CCCC[C@H](NC(=O)[C@@H](NC(=O)[C@H](CC(=O)O)NC(=O)[C@H](CCC(N)=O)NC(=O)[C@H](CC(C)C)NC(=O)[C@H](CC(C)C)NC(=O)[C@H](CCCN)NC(=O)[C@H](Cc1c[nH]cn1)NC(=O)[C@H](C)NC(=O)[C@H](CO)NC(=O)[C@H](CC(C)C)NC(=O)[C@H](CCC(N)=O)NC(=O)[C@H](CC)NC(=O)[C@H](CC(C)C)NC(=O)[C@@H](NC(=O)[C@H](CCCN)NC(=O)[C@H](Cc1c[nH]cn1)NC(=O)[C@H](Cc1ccc(OC)cc1)NC(=O)[C@H](CCCCNC(=N)N)NC(=O)[C@H](C)NC(=O)[C@@H](NC(=O)[C@H](Cc1c(F)c(F)c(F)c(F)c1F)NC(=O)[C@@H](NC(=O)[C@H](C)NC(=O)[C@H](CC(=O)O)NC(=O)[C@@H](CCCNC(=N)N)NC(=O)[C@H](Cc1ccc(O)cc1)NC(=O)CCCCCCCCCCCNC(=O)Cc1ccccc1)[C@@H](C)CC)[C@@H](C)O)C(C)C)[C@@H](C)CC)C(=O)N[C@H](CCCNC(=N)N)C(=O)N[C@@H](CCCCNC(=N)N)C(N)=O` [MIA-602, PhAC-Ada, Tyr D-Arg, Asp, Ala, Ile, 5FPhe, Thr, Ala, Har, Tyr(Me), His, Orn, Val, Leu, Abu, Gin, Leu, Ser, Ala, His, Orn, Leu, Leu, Gin, Asp, Ile, Nle, D-Arg, Har NH2, reference compound] ({PhAc-12Ado}-Y[dR]DAI[Phe(F5)]TA[hArg]Y(Me)H[Orn]VL[Abu]QLSAH[Orn]LLQDI[Nle][dR][hArg]-NH2), the “Relative inhibitory potency, Prostatic PC3” value (PC3 cells) was 1, the “In vitro relative inhibitory potency in comparison to MIA-602, HCC-1806” value (HCC1806 cells; Table 3B) was 1 and the “Relative inhibitory potency, Breast HCC1806” value (HCC1806 cells; [4]) was 1. For the same compound, the “In vitro relative inhibitory potency in comparison to MIA-602, MX-1” value (MX-1 cells; Table 3B) was 1, the “Relative inhibitory potency, Breast MX-1” value (MX-1 cells; [4]) was 1 and the “In vitro relative inhibitory potency in comparison to MIA-602, HT-29” value (HT-29 cells) was 1. For the same compound, the “Lung hydroxyproline (HP) content” value ([1]; day 14, MIA-602 5 μg/day sc, bleomycin IP) was “did not increase significantly”, the “Lung hydroxyproline (HP) content” value ([1]; day 28, MIA-602 5 μg/day sc days 1-21, bleomycin IP, compared to naive) was “No significant increase in HP content” and the “Infiltrative densities in lungs on micro-CT” value [2] was “less prominent infiltrative densities”. For the same compound, the “Signaling pathways in gastric cancer cells” value [3] was “downregulates p21 activated kinase and STAT3 and NFκB; also recorded: inhibits signaling pathways, including PAK1-STAT3/NF-κB”.
